Experimental data published in US10323016B2, “Imidazol- or 1,2,4-triazol-derivatives and their use” (UNIVERSITE DE LILLE 2 DROIT ET SANTE, priority 2014, dated 2019).

Tests used:
hTGR5 = hTGR5 (Homo sapiens (Human), UniProt Q8TDU6); experiment: TGR5/CRE Luciferase Assay (hTGR5); type: cell-based; conditions: for EC50: HEK 293 cells transiently co-transfected with pCMV tag4b-TGR5h and pCRE TA-Luciferase reporter, overnight incubation; for hTGR5 % trans: HEK 293 luciferase reporter, percentage of the 10 μM LCA value
Procedure: (§1) TGR5/CRE Luciferase Assay
(§2) In the following tables TGR5 activation by compounds and subsequent increase in intracellular cAMP were evaluated using a luciferase reporter gene assay. Human embryonic kidney (HEK) 293 cells were transiently co-transfected with pCMV tag4b-TGR5 h (to follow hTGR5 activation) or pCMV AC6-TGR5m (to follow mTGR5 activation) expression plasmids and the pCRE TA-Luciferase reporter plasmid using the JET PEI reagent (Polyplus transfection). Transfected cells were seeded in 96-well plates and incubated overnight with the test compounds at increasing concentrations tested in duplicate. Lithocolic acid (LCA) at 10 μM was used as a positive reference compound. The cAMP-dependent luciferase expression was followed using the BrightGlo reagent according to the manufacturer (Promega) instructions. Luminescence was read with a Mithras plate reader (Berthold). […] Concentration-response curves were fitted by a nonlinear regression analysis to a 4 parameter logistic equation.

mTGR5 = mTGR5 (Mus musculus (Mouse), UniProt Q80SS6); experiment: TGR5/CRE Luciferase Assay (mTGR5); type: cell-based; conditions: for EC50: HEK 293 cells transiently co-transfected with pCMV AC6-TGR5m and pCRE TA-Luciferase reporter, overnight incubation; for mTGR5 % trans: HEK 293 luciferase reporter, percentage of the 10 μM LCA value
Procedure: as §1, §2

Sequence of hTGR5 (Q8TDU6 whole entry): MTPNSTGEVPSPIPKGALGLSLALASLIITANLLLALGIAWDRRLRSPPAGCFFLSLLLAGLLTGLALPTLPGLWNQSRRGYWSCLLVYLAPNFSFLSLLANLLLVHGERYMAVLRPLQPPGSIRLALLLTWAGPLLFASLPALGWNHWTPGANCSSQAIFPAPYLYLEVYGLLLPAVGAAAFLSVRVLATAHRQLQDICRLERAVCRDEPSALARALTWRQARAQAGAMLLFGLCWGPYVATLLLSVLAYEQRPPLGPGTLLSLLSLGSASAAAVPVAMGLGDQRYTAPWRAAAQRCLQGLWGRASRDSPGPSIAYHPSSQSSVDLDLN
Sequence of mTGR5 (Q80SS6 whole entry): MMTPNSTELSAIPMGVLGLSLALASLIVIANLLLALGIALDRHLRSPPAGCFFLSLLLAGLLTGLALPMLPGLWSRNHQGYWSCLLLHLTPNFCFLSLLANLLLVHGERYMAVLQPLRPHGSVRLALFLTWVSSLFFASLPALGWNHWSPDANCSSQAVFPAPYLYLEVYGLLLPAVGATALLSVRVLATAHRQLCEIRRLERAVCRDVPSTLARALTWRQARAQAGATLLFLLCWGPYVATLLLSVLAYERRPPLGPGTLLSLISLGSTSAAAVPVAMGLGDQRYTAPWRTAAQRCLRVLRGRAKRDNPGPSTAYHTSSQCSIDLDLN

| EC50 (hTGR5) [nM] | hTGR5 % trans (hTGR5) [%] | EC50 (mTGR5) [nM] | mTGR5 % trans (mTGR5) [%] | Substance |
| --- | --- | --- | --- | --- |
| 160 | 85 | 18 | 98 | [2-[2,6-Difluoro-4-(2-methoxy-polyethyleneglycoxy)-benzylsulfanyl]-3-(4-fluoro-phenyl)-3H-imidazol-4-yl]-(3,4-dimethoxy-phenyl)-methyl-amine [Example 9] |
| 580 | 60 | 29 | 85 | [2-[2,6-Difluoro-4-(2-methoxy-polyethyleneglycoxy)-benzylsulfanyl]-3-(4-fluoro-phenyl)-3H-imidazol-4-yl]-(3,4-dimethoxy-phenyl)-methyl-amine [Example 22] |
| 1200 | 71 | 68 | 126 | [2-[2,6-Difluoro-4-(2-methoxy-polyethyleneglycoxy)-benzylsulfanyl]-3-(4-fluorophenyl)-3H-imidazol-4-yl]-(3,4-dimethoxy-phenyl)-methyl-amine [Example 24] |

| Substance | EC50 (hTGR5) [nM] | hTGR5 % trans (hTGR5) [%] | EC50 (mTGR5) [nM] | mTGR5 % trans (mTGR5) [%] |
| --- | --- | --- | --- | --- |
| [2-[2,6-Difluoro-4-(2-methoxy-polyethyleneglycoxy)-benzylsulfanyl]-3-(4-fluoro-3-methoxy-phenyl)-3H-imidazol-4-yl]-(3,4-dimethoxy-phenyl)-methyl-amine [Example 23] | 330 | 103 | 26 | 108 |
